Results on eight compounds are retold here after publication PMC6813925, “Zearalenone and ß-Zearalenol But Not Their Glucosides Inhibit Heat Shock Protein 90 ATPase Activity” (Frontiers in Pharmacology, 2019).

A short description of data set [1]: Solubility and handling stability observations. The format is physicochemical. The source says:
(§1) Previously, we had shown that AtUGT73C6, when expressed in a multiple-ABC-transporter–deficient yeast strain, leads to the production of ZEN-14-glucoside [old nomenclature ZEN-4-glucoside, [Metzler (2011)]] after ZEN treatment ([Poppenberger et al., 2006]). […] We therefore generated RAD-glucoside for in vitro tests. […] Therefore, we were unable to determine at which position RAD was glucosylated.

Another data set deals with yeast strain YZGA515. Briefly: Yeast spotting assay for RAD toxicity. The settings on record: multiple-ABC-transporter-deficient yeast strain, SC-LEU plates with 40 mg/L RAD. The format is cell-based, Saccharomyces cerevisiae.
Description: as §1
Spotting of YZGA515 transformants (three serial 10^−1 dilutions) expressing either AtUGT73C6 (upper row) or containing the empty vector.

Data set [2] addresses T1, AtHSP90.1 (Arabidopsis thaliana, UniProt P27323).
T1 construct: The coding region of AtHSP90.1 (At5g52640) was amplified from cDNA; 6xHis; made in house; host or cells: Escherichia coli BL21 (DE3) or phosphatase-deficient strain K894
Briefly: HSP90 ATPase activity assay (malachite green), AtHSP90.1. The class given is biochemical. From the text: (§2) For initial experiments, we expressed and purified the Saccharomyces cerevisiae ScHsp82 protein. The HSP82 coding region was amplified using the primer pair HSP82-1fwd (5’-[…]-3’) and HSP82-2rev (5’-[…]-3’), which contain BamHI and HindIII sites (underlined), respectively. The resulting 2,156 bp fragment was digested with BamHI and HindIII and ligated into the expression vector pQE-80L (Qiagen) cleaved with the same enzymes yielding plasmid pGW870. The coding region of AtHSP90.1 (At5g52640) was amplified from cDNA with the oligonucleotide primers 5’-[…]-3’ and 5’-[…]-3’. The resulting PCR product was digested with NdeI and SpeI (restriction sites on primers underlined) and introduced to pQE-80L (Qiagen), cleaved with the same enzymes to obtain the construct pQE80:AtHSP90.1. The cDNA of wheat HSP90 gene TaHSP90-2 (Triticum aestivum; DQ665784.1) was amplified with 5’-[…]-3’ and 5’-[…]-3’ (NdeI and SpeI, respectively) and introduced to pQE-80L. All constructs were verified by sequencing.
(§3) Protein production was induced by isopropyl β-D-1-thiogalactopyranoside (IPTG) following the supplier’s instructions. Protein purification was performed on an Äkta system (GE Healthcare, Uppsala, Sweden). […] Further purification was done by anion exchange chromatography on a 1 ml Resource Q column (GE Healthcare). Proteins were bound to the column in 25 mM Tris/Cl pH 7.5 and eluted with a linear gradient of 0–1 M NaCl in 15 column volumes. The obtained fractions were desalted using a Sephadex™ G-25 fine column, and the purified recombinant proteins were stored in the final elution buffer (25 mM Tris/Cl pH 7.5) at 4°C.
The ATPase activities of recombinant proteins AtHSP90.1, TaHSP90-2, and ScHsp82 were assayed following the method of [Rowlands et al. (2004)] using an ATP concentration of 1 mM. […] After this time, the released inorganic phosphate was quantified with the malachite green colorimetric assay ([Rowlands et al., 2004]). The reaction was stopped by adding 10 µl of 34% sodium citrate to each well after 20 min incubation at room temperature, and the absorbance was measured at 620 nm. […]

In a further data set the target is TaHSP90-2 (Triticum aestivum, UniProt A0ACM8QAI9). Briefly: biochemical. The following applies: for ATPase inhibition of TaHSP90-2: Figure 4B-D; for remaining activity at 100 µM: read-out: remaining (residual) ATPase activity of TaHSP90-2.
Sequence of TaHSP90-2 (A0ACM8QAI9 1-700): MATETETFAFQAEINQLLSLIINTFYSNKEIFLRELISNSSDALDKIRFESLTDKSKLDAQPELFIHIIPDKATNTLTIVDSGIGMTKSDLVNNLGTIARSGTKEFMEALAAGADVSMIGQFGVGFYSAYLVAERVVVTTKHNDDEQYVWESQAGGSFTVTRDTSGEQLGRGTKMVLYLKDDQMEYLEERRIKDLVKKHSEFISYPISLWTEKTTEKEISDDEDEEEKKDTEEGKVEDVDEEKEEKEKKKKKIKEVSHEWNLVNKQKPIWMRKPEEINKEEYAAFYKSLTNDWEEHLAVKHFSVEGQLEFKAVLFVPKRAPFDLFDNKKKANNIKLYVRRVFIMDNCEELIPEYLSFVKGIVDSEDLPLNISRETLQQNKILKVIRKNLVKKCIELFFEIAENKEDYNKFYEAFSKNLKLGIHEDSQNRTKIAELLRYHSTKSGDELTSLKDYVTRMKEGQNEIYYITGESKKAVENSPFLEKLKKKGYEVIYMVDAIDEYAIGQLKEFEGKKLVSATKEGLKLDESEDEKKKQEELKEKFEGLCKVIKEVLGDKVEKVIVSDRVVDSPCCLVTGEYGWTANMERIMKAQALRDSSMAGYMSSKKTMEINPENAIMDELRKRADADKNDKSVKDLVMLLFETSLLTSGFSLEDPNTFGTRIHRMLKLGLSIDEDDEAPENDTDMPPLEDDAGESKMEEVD
Description: as §2, §3
(§4) The ATPase activities of recombinant proteins AtHSP90.1, TaHSP90-2, and ScHsp82 were assayed following the method of [Rowlands et al. (2004)] using an ATP concentration of 1 mM. The effect of several potential inhibitors was tested in 96-well plates using toxin concentrations ranging from 1 to 150 µM. All compounds were dissolved in 20% DMSO and further diluted. The assays were performed in a total volume of 25 µl with a final protein concentration of 0.2 µg/µl and 4% DMSO. Controls were incubated with the solvent DMSO without inhibitor. The reactions were incubated at 37°C for 3 h in the dark. After this time, the released inorganic phosphate was quantified with the malachite green colorimetric assay ([Rowlands et al., 2004]). The reaction was stopped by adding 10 µl of 34% sodium citrate to each well after 20 min incubation at room temperature, and the absorbance was measured at 620 nm.
To test whether the yeast model reflects the situation in dicot and monocots plants, AtHSP90.1 and an HSP90 protein from wheat were expressed and purified. The wheat cDNA previously named “TaHSP90-2” corresponds to UniProtKB Q0Q0I7 (Q0Q0I7_WHEAT). This gene belongs to a family of nine highly similar cytosolic HSP90 proteins of wheat, has been named HSP90.3-D1 in a functional study ([Wang et al., 2011]), and is located on chromosome 5D (= EnsemblPlants Traes_5DL_89CF7F5DE).

A further data set concerns the target T2, ScHsp82p (Saccharomyces cerevisiae, UniProt P02829).
T2 construct: The HSP82 coding region was amplified using the primer pair HSP82-1fwd; 6xHis (N); made in house; host or cells: Escherichia coli BL21 (DE3) or phosphatase-deficient strain K894
Briefly: biochemical. The class given is biochemical. The following applies: for remaining ATPase activity of ScHsp82p: at 100 µM, relative to DMSO control.
Description: as §2, with “The resulting 2,156 bp fragment was digested with BamHI and HindIII and ligated into the expression vector pQE-80L (Qiagen) cleaved with the same enzymes yielding plasmid pGW870.” left out
as §3
All compounds were dissolved in 20% DMSO and further diluted. The assays were performed in a total volume of 25 µl with a final protein concentration of 0.2 µg/µl and 4% DMSO. Controls were incubated with the solvent DMSO without inhibitor. The reactions were incubated at 37°C for 3 h in the dark.

Data set [3] relates to AtHSP90.1. Briefly: Quantitative real-time PCR of AtHSP90.1 in seedlings. The class given is cell-based, Arabidopsis thaliana. The settings on record: 50 µM, 2 h, vs mock control DMSO, reference gene AT5G46630. How it is done: A. thaliana (ecotype Columbia, Col-0) seeds were surface-sterilized using sodium hypochlorite (2%) plus 0.01% Triton X for 10 min and rinsed twice with sterile water. Seeds were distributed in 24-well plates (4 wells per treatment, 30–40 seeds per well) and re-suspended in 1 ml (per well) of liquid Murashige and Skoog medium (“MS” basal salt mixture, Sigma) supplemented with 1% sucrose. After 2 days of stratification at 4°C, the plates were transferred to a growth chamber at 21°C under a 16 h light/8 h dark photoperiod.
Total RNA was extracted from 13-day-old A. thaliana (Col-0) seedlings grown in liquid MS medium supplemented with 2.5% sucrose and 50 μM ZEN for 2 h. […] RNA was quantified with the Qubit (Invitrogen) and NanoDrop (Peqlab) systems. […] Absolute and relative expression were calculated with a dilution series of purified AtHSP90.1 and AP2M PCR fragments of known molar concentration in each RT-qPCR run. […] Each sample was measured in triplicate from four independent cDNAs. […]
Figure 2 Transcriptional response of Arabidopsis thaliana HSP90 genes to zearalenone (ZEN). […] (B) Quantitative real-time PCR of A. thaliana HSP90.1 after 2 h treatment with ZEN (50 µM) or DMSO. The results are expressed as relative expression to the reference gene ADAPTOR PROTEIN-2 MU-ADAPTIN (AP2M; AT5G46630) and represent the means of four biological replicates ± standard deviation.
Background: Real-time PCR tracks product formation cycle by cycle.

Data set [4] relates to AtHSP90.1. More on the design: method as in Werner, 2005. The settings on record: 50 µM, 2 h, vs DMSO; ref Werner, 2005; cited from earlier work.
For data set [5], the system named is Arabidopsis thaliana plants containing RPS2. More on the design: method as in Takahashi et al., 2003. The following applies: 10 μM; ref Takahashi et al., 2003; cited from earlier work.
Data set [6] can be described thus: Stability of glucosides under ATPase assay conditions (LC-MS/MS before and after incubation). The format is physicochemical. The following applies: LC-MS/MS before and after incubation period, p = 0.21. How it is done:
as §4
Likewise, we found all glucosides of ZEN, αZEL, and βZEL stable under identical conditions, with recoveries of > 88%, p > 0.05, in each case.

T2 sequence (P02829 whole entry): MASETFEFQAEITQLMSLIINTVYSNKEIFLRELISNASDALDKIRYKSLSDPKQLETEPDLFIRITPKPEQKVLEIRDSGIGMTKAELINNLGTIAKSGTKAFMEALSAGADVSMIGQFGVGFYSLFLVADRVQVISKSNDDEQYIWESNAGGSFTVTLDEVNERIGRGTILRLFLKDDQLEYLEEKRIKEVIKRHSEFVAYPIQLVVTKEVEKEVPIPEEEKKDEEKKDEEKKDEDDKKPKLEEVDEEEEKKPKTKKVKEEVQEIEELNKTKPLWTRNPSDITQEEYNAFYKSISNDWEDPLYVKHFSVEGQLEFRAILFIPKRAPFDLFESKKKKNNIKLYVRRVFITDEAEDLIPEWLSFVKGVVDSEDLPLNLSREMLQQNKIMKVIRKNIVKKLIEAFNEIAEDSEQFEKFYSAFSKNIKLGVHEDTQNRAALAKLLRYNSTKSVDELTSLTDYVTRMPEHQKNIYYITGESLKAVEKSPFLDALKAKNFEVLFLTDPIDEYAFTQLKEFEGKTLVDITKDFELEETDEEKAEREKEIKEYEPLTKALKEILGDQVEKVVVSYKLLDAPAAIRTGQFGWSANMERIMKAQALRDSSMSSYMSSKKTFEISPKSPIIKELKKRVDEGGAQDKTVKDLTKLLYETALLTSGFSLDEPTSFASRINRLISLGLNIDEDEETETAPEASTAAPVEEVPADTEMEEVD
T1 sequence (P27323 whole entry): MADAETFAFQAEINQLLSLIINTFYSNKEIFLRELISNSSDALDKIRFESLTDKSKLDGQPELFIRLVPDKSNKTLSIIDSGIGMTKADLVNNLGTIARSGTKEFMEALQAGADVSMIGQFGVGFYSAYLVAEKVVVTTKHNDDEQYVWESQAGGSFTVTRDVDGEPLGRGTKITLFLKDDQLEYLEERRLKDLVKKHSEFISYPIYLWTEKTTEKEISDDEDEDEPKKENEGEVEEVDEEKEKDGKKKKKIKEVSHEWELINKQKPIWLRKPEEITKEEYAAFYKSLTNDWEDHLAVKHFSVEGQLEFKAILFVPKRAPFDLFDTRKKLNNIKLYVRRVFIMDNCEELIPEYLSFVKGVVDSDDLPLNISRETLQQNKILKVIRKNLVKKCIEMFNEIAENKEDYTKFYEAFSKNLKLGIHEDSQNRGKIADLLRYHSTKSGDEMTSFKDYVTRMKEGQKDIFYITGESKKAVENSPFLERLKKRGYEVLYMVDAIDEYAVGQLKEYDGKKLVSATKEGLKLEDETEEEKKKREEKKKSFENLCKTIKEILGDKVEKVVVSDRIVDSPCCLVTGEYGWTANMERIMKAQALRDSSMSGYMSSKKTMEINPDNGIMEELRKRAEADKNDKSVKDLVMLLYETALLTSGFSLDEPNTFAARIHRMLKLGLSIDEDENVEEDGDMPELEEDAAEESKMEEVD

In the case of `C[C@@H]1C[C@H]2O[C@@H]2/C=C\C=C\C(=O)Cc2c(Cl)c(O)cc(O)c2C(=O)O1` [RAD, radicicol, reference compound], in data set [1] (yeast culture medium), the solubility in medium entry is “limited solubility”. The “toxicity to yeast strain” value with yeast strain YZGA515 is recorded as “toxic”.
Take `C[C@H]1CCCC(=O)CCC/C=C/c2cc(O[C@@H]3O[C@H](CO)[C@@H](O)[C@H](O)[C@H]3O)cc(O)c2C(=O)O1` [ZEN14G, zearalenone-14-O-ß-D-glucopyranoside]: the “ATPase inhibition of AtHSP90.1” value on AtHSP90.1 [2] (100 µM, p = 0.75) is “inactive”. In addition, the “ATPase inhibition of TaHSP90-2” value at TaHSP90-2 is given as “did not cause activity reduction”.
With `C[C@H]1CCCC(=O)CCC/C=C/c2cc(O)cc(O[C@@H]3O[C@H](CO)[C@@H](O)[C@H](O)[C@H]3O)c2C(=O)O1` [ZEN16G, zearalenone-16-O-ß-D-glucopyranoside], on TaHSP90-2, the “ATPase inhibition of TaHSP90-2” value is “did not cause activity reduction”.
What is called IC50 is the concentration at which inhibition is half-maximal. By remaining activity is commonly meant what remains of the control signal, in per cent. As for `C[C@H]1CCCC(=O)CCC/C=C/c2cc(O)cc(O)c2C(=O)O1` [ZEN, zearalenone], the “remaining ATPase activity of ScHsp82p” value on ScHsp82p worked out at 59 ± 5%. Also, the IC50 on AtHSP90.1 [2] was approximately 10 µM; against TaHSP90-2, 20 µM. Besides, the “remaining ATPase activity of AtHSP90.1” value at AtHSP90.1 [2] (at 100 µM) is on record as 18 ± 6%. For the same compound, the remaining activity at 100 µM at TaHSP90-2 is 12 ± 5%. In the data set on AtHSP90.1 [3], the “induction of AtHSP90.1 (quantitative real-time PCR)” value turned out to be 35 fold. For the same compound, in the data set with AtHSP90.1 [4], the “induction of AtHSP90.1 (microarray)” value is listed as “about 3.7 fold”.
On to `COC1=C2C[C@@H](C)C[C@H](OC)[C@H](O)[C@@H](C)/C=C(\C)[C@H](OC(N)=O)[C@@H](OC)/C=C\C=C(/C)C(=O)NC(=CC1=O)C2=O` [geldanamycin], for which the “hypersensitive response triggered by Pseudomonas syringae DC3000 (avrRpt2)” value in data set [5] is “diminished”.
For the compound `C[C@H]1CCC[C@@H](O)CCC/C=C/c2cc(O)cc(O)c2C(=O)O1` [ßZEL, ß-zearalenol], the “remaining ATPase activity of ScHsp82p” value at ScHsp82p came to 8.6 ± 2.4%. At ScHsp82p (recombinant 6xHis ScHsp82p, 1 mM ATP, 37°C, 3 h, read-out: IC50, ATPase inhibition of ScHsp82p), the half-maximal inhibitory concentration (IC50) was approximately 15 µM. In addition, at TaHSP90-2, the half-maximal inhibitory concentration (IC50) was approximately 10 µM and the remaining activity at 100 µM came out at 0.7 ± 3.3%.
In the case of `C[C@H]1CCC[C@H](O)CCC/C=C/c2cc(O)cc(O)c2C(=O)O1` [αZEL, α-zearalenol], the “ATPase inhibition of ScHsp82p” value at ScHsp82p (toxin concentrations 1 to 150 µM) was “did not elicit a detectable response”. Further, the remaining activity at 100 µM on TaHSP90-2 amounted to 71 ± 6%.
For the compound radicicol-glucoside [RAD-glucoside], the stability on handling entry in [1] (particularly when brought to dryness) is reported as “appears unstable”. Also, in [6], the “change in concentration under assay conditions” value is given as “no significant”.
